Experimental data from patent US20260250318A1, “COMPOSITIONS AND METHODS FOR CROSSING THE BLOOD BRAIN BARRIER” (VOYAGER THERAPEUTICS, INC., priority 2022, published 2026).

System: brains, heart, liver, muscle, and DRG of the NHPs
Assay: Maturation of TTM-001 and TTM-002 capsids, NGS enrichment in NHP tissues
Assay type: in vivo
Details: NGS, relative to AAV9 control; for Fold Enrichment relative to AAV9, Liver RNA (NHP): TTM-001 and TTM-002 matured AAV capsid variants
Excerpt: This Example describes maturation of the AAV9 capsid variants, TTM-001 (SEQ ID NO: 981 (amino acid) and 983 (DNA), comprising SEQ ID NO: 941 (encoded by SEQ ID NO: 942)) and TTM-002 (SEQ ID NO: 982 (amino acid) and 984 (DNA), comprising SEQ ID NO: […] (encoded by SEQ ID NO: 944)) in NHPs to further enhance their transduction and biodistribution in the central nervous system as well as other tissues, and evolve the AAV capsid variants to provide further cross-species compatibility. Two approaches were used to mature the TTM-001 and TTM-002 capsid sequences in order to randomize and mutate within and around the peptide insert comprised within loop IV of the capsid variant. […] In the first maturation approach, sets of three contiguous amino acids were randomized across the mutagenesis region in the TTM-001 and TTM-002 sequences, which spanned from position 450 to position 466, numbered according to SEQ ID NO: 981 and 982. In the second maturation approach, mutagenic primers were used to introduce point mutations at a low frequency, scattered across the mutagenesis region in the TTM-001 and TTM-002 sequences ranging from position 449 to position 466, numbered according to SEQ ID NO: 981 and 982. AAV capsid variants arising from each maturation approach for TTM-001 and TTM-002 were pooled together, for subsequent testing and characterization in NHPs.
The library of pooled matured AAV capsid variants generated using the first maturation approach and the second maturation approach for the TTM-001 and TTM-002 AAV capsid variants were injected into two NHPs. […] Following RNA recovery and RT-PCR amplification, a systematic NGS enrichment analysis was performed to calculate the fold enrichment ratio relative to an AAV9 control, and the peptides comprised within the variants were identified.
Following the RNA recovery and NGS analysis from the second maturation approach, approximately 680,000 capsid variants were identified. The 680,000 matured capsid variants were then filtered based on samples with a raw virus count greater than 10 and a coefficient of variance (CV) of less than 1, which was calculated for each peptide across the brain samples taken from the two NHPs. […] Using this filtering criteria, this led to approximately 64,000 matured capsid variants.

Sequence	Fold Enrichment relative to AAV9, DRG (NHP)	Fold Enrichment relative to AAV9, Brain (NHP)	Fold Enrichment relative to AAV9, Heart (NHP)	Fold Enrichment relative to AAV9, Liver DNA (NHP)	Fold Enrichment relative to AAV9, Liver RNA (NHP)	Fold Enrichment relative to AAV9, Muscle (NHP)
KTINGSGSPHSKFKNQQT	0.000 fold	0.000 fold	0.000 fold	1.074 fold	21.951 fold	0.000 fold
KTINGSGSPHSKFRQQQT	0.000 fold	0.000 fold	0.000 fold	3.260 fold	38.665 fold	0.000 fold
KTINGSGSPHSKGCTQQT	0.000 fold	0.000 fold	0.000 fold	0.529 fold	26.068 fold	0.000 fold
KTINGSGSPHSKIRGQQT	0.000 fold	0.000 fold	0.000 fold	1.584 fold	18.150 fold	0.000 fold
KTINGSGSPHSKIRRQQT	0.000 fold	0.000 fold	0.000 fold	1.388 fold	53.528 fold	0.000 fold
KTINGSGSPHSKKTSQQT	0.000 fold	0.000 fold	0.000 fold	1.344 fold	15.244 fold	0.000 fold
KTINGSGSPHSKKVFQQT	0.000 fold	0.000 fold	0.000 fold	4.480 fold	43.747 fold	0.000 fold
KTINGSGSPHSKLCTQQT	0.000 fold	0.000 fold	0.000 fold	1.269 fold	18.674 fold	0.000 fold
KTINGSGSPHSKLFWQQT	0.000 fold	0.000 fold	0.000 fold	4.178 fold	37.022 fold	0.000 fold
KTINGSGSPHSKLKRQQT	0.000 fold	0.000 fold	0.000 fold	6.884 fold	76.103 fold	0.000 fold
KTINGSGSPHSKLPKQQT	0.000 fold	0.000 fold	0.000 fold	0.274 fold	11.856 fold	0.000 fold
KTINGSGSPHSKMICQQT	0.000 fold	0.000 fold	0.000 fold	0.144 fold	21.036 fold	0.000 fold
KTINGSGSPHSKMPCQQT	0.000 fold	0.000 fold	0.000 fold	1.063 fold	15.343 fold	0.000 fold
KTINGSGSPHSKNSRQQT	0.000 fold	0.000 fold	0.000 fold	1.093 fold	11.280 fold	0.000 fold
KTINGSGSPHSKPFRQQT	0.000 fold	0.000 fold	0.000 fold	8.700 fold	29.842 fold	0.000 fold
KTINGSGSPHSKPKRQQT	0.000 fold	0.000 fold	0.000 fold	2.832 fold	52.881 fold	0.000 fold
KTINGSGSPHSKQRPQQT	0.000 fold	0.000 fold	0.000 fold	2.347 fold	11.130 fold	0.000 fold
KTINGSGSPHSKRHRQQT	0.000 fold	0.000 fold	0.000 fold	4.648 fold	73.225 fold	0.000 fold
KTINGSGSPHSKRKRQQT	0.000 fold	0.000 fold	0.000 fold	3.027 fold	11.215 fold	0.000 fold
KTINGSGSPHSKRNYQQT	0.000 fold	0.000 fold	0.000 fold	5.528 fold	12.781 fold	0.000 fold
KTINGSGSPHSKRRAQQT	0.000 fold	0.000 fold	0.000 fold	5.906 fold	26.523 fold	0.000 fold
KTINGSGSPHSKRSYQQT	0.000 fold	0.000 fold	0.000 fold	2.116 fold	28.973 fold	0.000 fold
KTINGSGSPHSKRVVQQT	0.000 fold	0.000 fold	0.000 fold	1.639 fold	11.094 fold	0.000 fold
KTINGSGSPHSKRYTQQT	0.000 fold	0.000 fold	0.000 fold	9.412 fold	25.267 fold	0.000 fold
KTINGSGSPHSKSEQQQT	0.000 fold	0.000 fold	0.000 fold	1.769 fold	11.785 fold	0.000 fold
